Experimental data as given in ChEMBL document CHEMBL1201862, “PubChem BioAssay data set” (2004).
The source made the active and inactive calls.

What was measured:
[1] = Counterscreen for activators of the function of SWI/SNF related, matrix associated, actin dependent regulator of chromatin, subfamily a, member 2 (SMARCA2, BRM): Luminescence-based cell-based high throughput dose response assay to identify non-selective compounds using the VP16 reporter assay.; type: functional
[2] = target: SWI/SNF-related matrix-associated actin-dependent regulator of chromatin subfamily A member 2 (Homo sapiens, UniProt P51531); experiment: Luminescence-based cell-based high throughput dose response assay to identify activators of the function of SWI/SNF related, matrix associated, actin dependent regulator of chromatin, subfamily a, member 2 (SMARCA2, BRM).; type: functional
Sequence of SWI/SNF-related matrix-associated actin-dependent regulator of chromatin subfamily A member 2 (P51531 whole entry): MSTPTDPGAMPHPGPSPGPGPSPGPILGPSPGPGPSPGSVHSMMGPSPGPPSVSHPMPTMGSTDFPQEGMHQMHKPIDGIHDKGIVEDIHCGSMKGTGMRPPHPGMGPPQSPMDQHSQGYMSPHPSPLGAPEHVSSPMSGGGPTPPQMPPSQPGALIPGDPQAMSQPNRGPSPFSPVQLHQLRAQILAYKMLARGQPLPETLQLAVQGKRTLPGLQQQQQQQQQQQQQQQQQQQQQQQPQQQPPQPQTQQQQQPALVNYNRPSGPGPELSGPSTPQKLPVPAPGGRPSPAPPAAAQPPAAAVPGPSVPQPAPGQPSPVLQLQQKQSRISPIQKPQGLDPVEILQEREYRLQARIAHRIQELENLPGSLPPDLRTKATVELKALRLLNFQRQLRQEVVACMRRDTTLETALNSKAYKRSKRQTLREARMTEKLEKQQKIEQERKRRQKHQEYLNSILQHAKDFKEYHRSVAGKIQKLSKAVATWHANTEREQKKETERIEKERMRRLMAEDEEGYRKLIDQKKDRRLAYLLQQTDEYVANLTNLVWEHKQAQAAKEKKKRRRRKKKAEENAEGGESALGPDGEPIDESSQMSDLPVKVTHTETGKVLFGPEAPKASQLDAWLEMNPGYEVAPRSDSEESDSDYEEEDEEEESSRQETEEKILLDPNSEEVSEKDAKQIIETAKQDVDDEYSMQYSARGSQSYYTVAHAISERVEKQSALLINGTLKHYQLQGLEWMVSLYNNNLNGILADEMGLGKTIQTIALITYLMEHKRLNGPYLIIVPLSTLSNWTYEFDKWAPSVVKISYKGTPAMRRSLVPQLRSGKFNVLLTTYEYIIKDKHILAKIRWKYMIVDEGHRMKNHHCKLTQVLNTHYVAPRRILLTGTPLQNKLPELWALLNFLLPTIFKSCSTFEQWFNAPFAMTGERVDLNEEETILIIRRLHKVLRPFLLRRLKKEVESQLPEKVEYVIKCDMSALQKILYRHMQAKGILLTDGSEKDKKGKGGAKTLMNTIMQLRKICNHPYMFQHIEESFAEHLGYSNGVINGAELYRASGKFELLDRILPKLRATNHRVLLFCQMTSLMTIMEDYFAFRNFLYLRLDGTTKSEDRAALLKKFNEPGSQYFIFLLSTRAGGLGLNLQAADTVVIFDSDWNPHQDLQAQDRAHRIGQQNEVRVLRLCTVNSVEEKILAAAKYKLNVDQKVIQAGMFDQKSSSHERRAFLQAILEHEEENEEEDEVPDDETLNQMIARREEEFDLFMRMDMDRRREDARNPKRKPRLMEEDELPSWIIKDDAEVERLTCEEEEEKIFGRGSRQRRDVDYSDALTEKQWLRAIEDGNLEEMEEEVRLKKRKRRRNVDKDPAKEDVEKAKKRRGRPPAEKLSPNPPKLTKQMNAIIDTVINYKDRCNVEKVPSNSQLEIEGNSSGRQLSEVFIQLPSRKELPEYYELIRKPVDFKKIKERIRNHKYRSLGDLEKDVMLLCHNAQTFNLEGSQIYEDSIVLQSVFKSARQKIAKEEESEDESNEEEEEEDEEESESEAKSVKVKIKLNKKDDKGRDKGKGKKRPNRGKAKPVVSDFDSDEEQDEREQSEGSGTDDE

[3] = Luminescence Cell-Based Dose Confirmation HTS to Identify Inhibitors of Platelet Dense Granule Release. [Related pubchem assays: 1663 (Primary HTS), 1678 (Summary of Project)]; type: functional
[4] = target: Luciferin 4-monooxygenase (Photinus pyralis, UniProt P08659); experiment: inhibition of purified Photinus pyralis luciferase – biochemical, luminescence, dose response (AID 1891)
Sequence of Luciferin 4-monooxygenase (P08659 whole entry, the tested form may be a part): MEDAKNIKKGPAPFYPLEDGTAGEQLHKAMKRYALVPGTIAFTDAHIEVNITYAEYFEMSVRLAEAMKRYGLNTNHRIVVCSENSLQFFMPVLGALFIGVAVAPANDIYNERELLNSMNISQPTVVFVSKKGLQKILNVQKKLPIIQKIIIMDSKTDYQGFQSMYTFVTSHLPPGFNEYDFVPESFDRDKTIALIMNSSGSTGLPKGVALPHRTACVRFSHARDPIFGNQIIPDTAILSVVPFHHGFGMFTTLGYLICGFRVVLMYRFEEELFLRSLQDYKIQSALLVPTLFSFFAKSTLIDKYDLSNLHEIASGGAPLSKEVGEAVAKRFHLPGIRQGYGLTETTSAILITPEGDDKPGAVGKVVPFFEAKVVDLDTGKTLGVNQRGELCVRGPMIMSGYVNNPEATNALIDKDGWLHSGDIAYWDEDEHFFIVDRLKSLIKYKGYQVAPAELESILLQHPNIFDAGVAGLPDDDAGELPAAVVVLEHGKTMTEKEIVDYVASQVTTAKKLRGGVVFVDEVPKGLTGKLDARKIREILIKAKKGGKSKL

[5] = blockers of HIV-1 envelope-mediated cell-cell fusion – cherry-pick, dose response (AID 652057); type: functional, cell-based
[6] = blockers of HIV-1 ZM109 envelope-driven cell-cell fusion – HeLa effector, CEM target cells, luciferase, cherry-pick, dose response (AID 652058); type: functional, cell-based;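 further: luciferase signal from HIV-1 Env mediated cell-cell fusion of effector and target cells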
[7] = HIV-1 AD8 envelope cell-cell fusion blockers – cherry-pick, dose response (AID 652062); type: functional, cell-based;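 further: luciferase signal from cell-cell fusion driven by HIV-1 clade B AD8 Env; potency is for inhibitors of fusion seen as a drop in luminescence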
[8] = off-target signal loss in HeLa-CEM21 co-culture – HeLa F-luc CTL cells, cherry-picked, counter-screen for HIV-1 Env fusion inhibitor project, dose response (AID 652040); type: functional, cell-based;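 further: potency for signal decrease marking cytotoxic or nonspecific inhibition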
[9] = target: T1, Corticotropin-releasing factor receptor 2/Corticotropin-releasing factor-binding protein (Homo sapiens, UniProt P24387+Q13324); experiment: activators of CRF receptor 2 with binding protein – uHTS hits, confirmation (AID 602473); type: functional; conditions: read-out: EC50_Mean
T1 sequence (Q13324 whole entry): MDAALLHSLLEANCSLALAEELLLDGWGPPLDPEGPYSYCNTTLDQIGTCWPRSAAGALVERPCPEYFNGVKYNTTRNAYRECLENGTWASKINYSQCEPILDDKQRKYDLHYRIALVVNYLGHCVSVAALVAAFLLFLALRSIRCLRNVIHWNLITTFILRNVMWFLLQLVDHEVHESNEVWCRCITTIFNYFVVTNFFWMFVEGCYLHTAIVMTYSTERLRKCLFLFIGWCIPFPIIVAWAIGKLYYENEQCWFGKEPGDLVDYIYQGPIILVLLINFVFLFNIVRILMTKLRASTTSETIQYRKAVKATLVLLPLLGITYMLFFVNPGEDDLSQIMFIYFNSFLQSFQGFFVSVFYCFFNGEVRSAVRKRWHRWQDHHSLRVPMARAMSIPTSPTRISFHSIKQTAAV
T1 sequence (P24387 whole entry): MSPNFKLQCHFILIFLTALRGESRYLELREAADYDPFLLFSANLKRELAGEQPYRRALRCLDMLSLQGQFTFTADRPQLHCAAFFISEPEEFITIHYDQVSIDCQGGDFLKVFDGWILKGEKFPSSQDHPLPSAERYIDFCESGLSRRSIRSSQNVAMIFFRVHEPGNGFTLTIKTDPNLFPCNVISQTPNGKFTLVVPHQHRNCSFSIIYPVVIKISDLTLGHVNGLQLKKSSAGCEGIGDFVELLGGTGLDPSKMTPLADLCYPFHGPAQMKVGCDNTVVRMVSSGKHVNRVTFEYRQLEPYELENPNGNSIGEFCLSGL

HeLa = experiment: ATP-based viability loss in HeLa cells – cell-based, CellTiter-Glo luminescence, cherry-pick samples, cytotoxicity control for MITF activator project, dose response (AID 540259); type: functional; conditions: Homo sapiens
[10] = tested on: Streptococcus sp. 'group A'; experiment: Streptococcus pyogenes SK(-)GAS viability under kanamycin – luminescence, BacTiterGlo, confirmation, counter-screen for streptokinase expression inhibitor project, dose response (AID 1900); type: functional, organism-based
cells = type: functional
[11] = Luminescence Cell-Based Dose Response HTS to Identify Activators of Luciferase Translation or Activity in H4 […] Cells. [Related pubchem assays: 1829 (Project Summary), 1814 (Primary HTS)]; type: functional
Streptococcus = experiment: GAS UMAA2166 growth inhibition – luminescence, BacTiterGlo, counter-screen for streptokinase expression inhibitor project, dose response (AID 1915); type: functional, organism-based;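 further: potency for reduction of bacterial viability or growth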
H4 = experiment: Luminescence Cell-Based Dose Response HTS to Identify Activators of 5'UTR Stem-Loop Driven Prion Protein mRNA Translation in H4 Neuroglioblastoma Cells. [Related pubchem assays: 1829 (Project Summary), 1814 (Primary HTS)]; type: functional; conditions: Homo sapiens
HEK293 [12] = experiment: EBV LMP1 TES2 canonical NF-kB signalling blockers – cell-based, HEK293, luciferase, cherry-pick, dose response (AID 588343); type: functional; conditions: Homo sapiens
[13] = viability loss in CEM21 cells – cell-based, CellTiter-Glo luminescence, cherry-picked, cytotoxicity control for viral fusion inhibitor project, dose response (AID 652042); type: functional;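 further: potency for signal decrease meaning cytotoxicity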
[14] = Trypanosoma cruzi growth suppression in host cells – NIH3T3 host cells, beta-gal luminescence, confirmation (AID 2044); type: functional, cell-based;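 further: intracellular parasites grown in NIH/3T3 mouse fibroblasts as host cells; luminescent beta-galactosidase reporter signal from transgenic T. cruzi replicating inside host cells; inhibitors lower the luminescence signal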
[15] = NIH3T3 cell viability loss – ATP luminescence, mouse fibroblasts, counter-screen, dose response (AID 2010); type: functional, cell-based;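 further: cells exposed to compound for about 90 hours before reading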
[16] = target: T2, RNA-binding protein pos-1 (Caenorhabditis elegans, UniProt G5EF15); experiment: disruptors of C. elegans POS-1 RNA interaction – biochemical, fluorescence polarization, dose response (AID 1964);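 further: purified POS-1 fused to maltose binding protein made in E. coli; potency of compounds blocking POS-1 binding to fluorescent RNA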
T2 sequence (G5EF15 whole entry): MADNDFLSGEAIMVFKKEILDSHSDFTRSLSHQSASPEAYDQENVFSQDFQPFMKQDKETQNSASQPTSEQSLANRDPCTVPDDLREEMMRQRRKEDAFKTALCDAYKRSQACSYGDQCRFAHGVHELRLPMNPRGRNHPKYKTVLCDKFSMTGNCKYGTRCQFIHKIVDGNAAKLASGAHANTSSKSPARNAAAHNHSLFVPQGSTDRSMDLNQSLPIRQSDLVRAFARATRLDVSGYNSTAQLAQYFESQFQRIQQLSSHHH

HEK293 [17] = experiment: inhibition of NOD1-driven NF-kB reporter – cell-based, luminescence, uHTS, primary screen (AID 1578); type: functional; conditions: Homo sapiens
HEK293 [18] = experiment: cells; type: functional, cell-based; conditions: Homo sapiens
HEK293 [19] = experiment: cells; type: functional, cell-based; conditions: Homo sapiens; remark: listed apart in the source
[20] = target: T3, Zinc finger protein mex-5 (Caenorhabditis elegans, UniProt Q9XUB2); experiment: potency of MEX-5 RNA-binding blockers – biochemical, C. elegans, fluorescence polarization, dose response (AID 1960)
T3 sequence (Q9XUB2 whole entry): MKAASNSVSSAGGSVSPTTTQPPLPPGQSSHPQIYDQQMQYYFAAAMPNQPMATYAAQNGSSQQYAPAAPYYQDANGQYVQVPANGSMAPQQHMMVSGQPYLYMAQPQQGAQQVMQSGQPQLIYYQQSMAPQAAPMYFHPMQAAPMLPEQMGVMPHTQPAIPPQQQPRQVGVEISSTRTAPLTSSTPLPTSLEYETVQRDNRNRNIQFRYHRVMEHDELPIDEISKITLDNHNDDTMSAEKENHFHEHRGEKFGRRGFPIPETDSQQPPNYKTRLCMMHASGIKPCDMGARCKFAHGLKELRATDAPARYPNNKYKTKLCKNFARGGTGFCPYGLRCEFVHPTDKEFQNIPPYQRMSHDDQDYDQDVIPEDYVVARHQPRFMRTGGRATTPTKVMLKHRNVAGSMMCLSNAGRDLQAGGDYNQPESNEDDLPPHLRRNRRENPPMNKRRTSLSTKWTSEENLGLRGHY

HEK293 [21] = experiment: NOD2 signaling inhibitors in MDP-stimulated cells, cell-based, uHTS, luminescence (AID 2001); type: functional; conditions: Homo sapiens

In the case of `CCN(CC)c1ccc(Nc2cc3n(c(=O)n2)CCc2cc(OC)c(OC)cc2-3)cc1`, the EC50 [1] is reported as > 91.2 µM (inactive), the EC50 [2] is reported as > 91.2 µM (inactive) and the EC50 [3] is reported as > 112 µM (not active). For the same compound, the EC50 [4] was > 112 µM (not active).

For `CC1=CC(C)(C)N(C(=O)c2ccccc2)c2ccc(C)cc21`, the AC50 [5] was 42.6 µM (active), the AC50 [6] was 7.28 µM (active) and the AC50 [7] was 42.2 µM (active). For the same compound, the AC50 [8] was 29.7 µM (active) and the EC50 [9] was 6.89 µM (active).

With `COc1cccc(C(=O)Nc2nnc(-c3ccccc3)s2)c1` the AC50 (HeLa) was 44.4 µM (active).

For `Cc1cccc(OC(=O)c2sc3ncn(C)c(=O)c3c2C)c1`, the EC50 [10] was 2.85 µM (active), the IC50 (cells) was 2.87 µM (active) and the AC50 (HeLa) was > 350 µM (inactive). For the same compound, the EC50 [11] was > 120 µM (not active), the EC50 (Streptococcus) was 7.36 µM (active) and the EC50 (H4) was 19.8 µM (active).

With `O=C(NC1CCCC1)c1cc(-c2ccc(Cl)cc2Cl)on1` the AC50 (HeLa) was > 350 µM (inactive).

With `C=CCn1c(SCc2csc(C)n2)nc2sc3c(c2c1=O)CCCC3` the AC50 (HEK293 [12]) was 35.8 µM (active).

In the case of `CC[C@@]12C(=O)N(c3cccc(Cl)c3)C(=O)N1[C@H](c1ccc(Br)cc1)[C@@H]1C(=O)N(C(C)(C)C)C(=O)[C@@H]12`, the AC50 [5] is reported as < 0.26 µM (active), the AC50 [6] is reported as < 0.26 µM (active) and the AC50 [13] is reported as 65.5 µM (active). For the same compound, the AC50 [7] was 0.342 µM (active) and the AC50 [8] was < 0.26 µM (active).

For `CCS(=O)(=O)c1ccc2oc(Nc3ccccc3C)nc2c1`, the AC50 (HeLa) was 78.7 µM (active).

In the case of `Cc1ccc(S(=O)(=O)N2c3ccccc3-c3c(ssc3=S)C2(C)C)cc1`, the EC50 [14] is reported as 2.65 µM (active), the AC50 (HEK293 [12]) is reported as 43.5 µM (active) and the EC50 [15] is reported as > 60 µM (not active).

With `COc1ccc(/C=C/C(=O)c2c(C)cc(C)nc2O)c2ccccc12` the EC50 [16] was > 300 µM (not active), the EC50 (HEK293 [17]) was 4.53 µM (active) and the IC50 (HEK293 [18]) was 10.1 µM (active). The IC50 (HEK293 [19]) was > 20 µM (inactive), the EC50 [20] was > 300 µM (not active) and the IC50 (HEK293 [21]) was 12.4 µM (inactive).

In the case of `O=C(OCc1cc(=O)oc2cc(O)ccc12)c1cc(S(=O)(=O)N2CCOCC2)ccc1F`, the EC50 [1] is reported as > 91.2 µM (inactive) and the EC50 [2] is reported as > 91.2 µM (inactive).
